Measured values as given in patent publication US20260007639A1, “COMPOUNDS FOR THE TREATMENT OF NEUROMUSCULAR DISORDERS” (NMD PHARMA A/S, priority 2017, published 2026).
Where two headings read alike, the source gives them in different places.

What was measured:
rat soleus muscles [1] = assay: Recovery of force in isolated rat soleus nerve-muscle preparations after 115 nM tubocurarine, 50 μM compound (Table 8); conditions: 40 mins exposure
Procedure: Force traces from a representative muscle stimulated to contract in 1) control condition before addition of neuromuscular blocking agent, 2) the force response to stimulation after 90 minutes incubation with Tubocurarine. […] The traces presented in FIG. 12A (1, 2, 3), correspond to the dotted lines in FIG. 12B, respectively.
Recovery of force is quantified as the percentage of the force prior to tubocurarine that is recovered by the compound.
The current invention relates to compounds that inhibit CIC-1 ion channels and increase muscle excitability and thereby improve muscle function in clinical conditions where muscle activation is failing. Such conditions result in loss of contractile function of skeletal muscle, weakness and excessive fatigue. In this series of experiments the compounds were tested for their ability to restore contractile function of isolated rat muscle when the neuromuscular transmission had been compromised akin to neuromuscular disorders.
Experimentally, soleus muscles from 4-5 wk old rats were isolated with the motor nerve remaining attached. The nerve-muscle preparations were mounted in experimental setups that enabled electrical stimulation of the motor nerve. Stimulation of the motor nerve led to activation of the muscle fibres and ensuing force production that was recorded.
After mounting the nerve-muscle preparation in the experimental setup, the contractile function of the muscle was initially assessed under the control conditions (FIG. 2A). […] The experimental condition mimics the failing neuromuscular transmission in a range of neuromuscular disorders. After addition of tubocurarine the contractile force declined over the next 90 mins to 10-50% of the control force. 50 μM of the test compound was then added and the contractile force recovered despite the continued presence of tubocurarine. To quantify the ability of the compound to restore force the percentage of the initial force that was restored was determined after 40 mins of compound exposure (FIG. 2B) and the point increase is reported in Table 8.

CIC-1 channels = target: T1, CIC-1 channels (Rattus norvegicus, UniProt P35524); assay: Electrophysiological measurement of compound inhibition of CIC-1 (Gm) in rat soleus muscle fibres: EC50 (Table 7)
T1 sequence (P35524 1-994): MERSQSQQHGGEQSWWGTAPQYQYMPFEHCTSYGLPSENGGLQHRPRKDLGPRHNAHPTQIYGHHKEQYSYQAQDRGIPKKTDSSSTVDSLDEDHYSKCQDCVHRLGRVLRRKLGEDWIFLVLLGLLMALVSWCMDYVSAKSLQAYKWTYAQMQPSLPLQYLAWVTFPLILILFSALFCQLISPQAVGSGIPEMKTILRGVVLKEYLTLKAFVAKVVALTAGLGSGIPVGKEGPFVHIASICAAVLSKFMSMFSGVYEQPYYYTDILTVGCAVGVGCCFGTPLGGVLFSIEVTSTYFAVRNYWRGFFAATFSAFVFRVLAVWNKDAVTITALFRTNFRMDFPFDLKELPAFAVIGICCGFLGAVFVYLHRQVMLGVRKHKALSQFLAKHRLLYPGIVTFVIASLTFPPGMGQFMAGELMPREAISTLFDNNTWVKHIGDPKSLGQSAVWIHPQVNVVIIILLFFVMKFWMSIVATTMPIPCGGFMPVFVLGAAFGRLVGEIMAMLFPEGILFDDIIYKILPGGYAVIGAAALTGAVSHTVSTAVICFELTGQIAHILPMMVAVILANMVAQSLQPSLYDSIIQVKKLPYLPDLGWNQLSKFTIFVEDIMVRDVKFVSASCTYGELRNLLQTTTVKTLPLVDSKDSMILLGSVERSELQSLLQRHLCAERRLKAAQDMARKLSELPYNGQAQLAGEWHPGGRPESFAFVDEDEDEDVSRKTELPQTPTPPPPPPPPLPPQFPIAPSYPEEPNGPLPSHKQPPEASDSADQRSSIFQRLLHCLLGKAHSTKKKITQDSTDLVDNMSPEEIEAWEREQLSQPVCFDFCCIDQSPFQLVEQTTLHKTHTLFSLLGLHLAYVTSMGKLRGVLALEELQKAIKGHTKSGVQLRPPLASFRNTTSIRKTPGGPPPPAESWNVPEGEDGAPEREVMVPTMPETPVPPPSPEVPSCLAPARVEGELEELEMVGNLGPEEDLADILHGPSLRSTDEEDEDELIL

rat soleus muscles [2] = assay: Recovery of nerve-stimulated force in isolated rat soleus muscles exposed to sub-maximal tubocurarine (Table 1); conditions: for 500 μM % change after addition (AUC force): 500 μM compound
Procedure: The motor nerve was stimulated every 10 min for 2 s with 30 Hz with field stimulation using short duration pulses. […] Traces are shown before addition tubocurarine, after 40 min with tubocurarine, and after 110 min tubocurarine. […] This recovery of force was used in Table 1.
Experiments were performed using rat soleus muscles from either young (4-wk-old) or adult Wistar rats (12-14-week-old). Animal handling, killing and isolation of muscle is described elsewhere All experiments were performed using normal Krebs-Ringer bicarbonate solution (NKR). In solutions with elevated Mg^2+, MgCl^2 was added to NKR-solution causing minor increases in osmolarity and ionic strength. In solutions with elevated K^+, 4 mM NaCl was replaced by 4 mM KCl in the NKR.
In all contraction experiments, isometric force production was determined and force produced during contractions was quantified by measuring the integral of the force response (AUC). Stimulation and force recordings have been described elsewhere. […] In these latter experiments, extracellular recordings of action potentials (M-waves) could be measured without temporal overlap with stimulation artefacts.
The aim was to find compounds that by inhibition of CIC-1 channels can recover nerve-stimulated force under conditions of fatigue including conditions where fatigue is caused by compromised neuromuscular transmission. Neuromuscular transmission dysfunction can develop because of both pre- and/or post-synaptic complications in connection with a disorder or as part of neuromuscular blockade during/after surgery. In the initial series of drug testing, experiments were performed with isolated muscles in the presence of sub-maximal ACh receptor antagonist tubocurarine. Since the inclusion of tubocurarine caused a partial loss of neuromuscular transmission this experiment mimics the conditions in myasthenia gravis and neuromuscular blockade. To mimic conditions with pre-synaptic complication (Lambert Eaton syndrome, motor neuron disorder, polyneuropathy) the intact nerve-muscle preparations were incubated at elevated extracellular Mg^2+, which is known to suppress release of ACh from nerve terminals of motor neurons. […]
For comparison with the muscle only exposed to tubocurarine (grey trace), the two traces have been overlaid. […] For comparison, muscles only exposed to tubocurarine have been included. The dotted line indicates the recovery of force with C8 when compared to the force production before its addition. This value was used in Table 1 for evaluation of the efficacy of the different compounds in recovering force.

[3] = 150 μM compound, % change in AUC compared to AUC before addition, after 40 min in tubocurarine
[4] = % change in AUC compared to AUC before addition, after 40 min in tubocurarine

SMILES	Point increase (%) of initial force that was restored (rat soleus muscles [1])	EC50 (CIC-1 channels)	further results
C[C@@H](Oc1ccc(Br)cc1-c1ccno1)C(=O)O [(2R)-A-22]	−3%	> 80 µM	–
CC[C@H](Oc1ccc(Br)cc1-c1ccno1)C(=O)O [Compound A-1, (2S)-2-[4-bromo-2-(1,2-oxazol-5-yl)phenoxy]butanoic acid]	18%	12.4 µM	–
CC(C)[C@H](Oc1ccc(Br)cc1-c1ccon1)C(=O)O [Compound A-3, (2S)-2-[4-bromo-2-(1,2-oxazol-3-yl)phenoxy]-3-methylbutanoic acid]	–	11.6 µM	–
C[C@H](Oc1ccc(Br)cc1-c1cc(C2CC2)on1)C(=O)O [Compound A-11, (2S)-2-[4-bromo-2-(5-cyclopropyl-1,2-oxazol-3-yl)phenoxy]propanoic acid]	19%	10.3 µM	–
O=C(O)[C@H](CF)Oc1ccc(Br)cc1-c1ccno1 [Compound A-21, (2R)-2-[4-bromo-2-(1,2-oxazol-5-yl)phenoxy]-3-fluoropropanoic acid]	13%	–	–
CC[C@H](Oc1ccc(Cl)cc1-c1ccon1)C(=O)O [Compound A-35, (2S)-2-[4-chloro-2-(1,2-oxazol-3-yl)phenoxy]butanoic acid]	28%	10.4 µM	–
O=C(O)[C@H](CF)Oc1ccc(Cl)cc1-c1ccon1 [Compound A-39, (2R)-2-[4-chloro-2-(1,2-oxazol-3-yl)phenoxy]-3-fluoropropanoic acid]	36%	5.2 µM	–
C[C@H](Oc1ccc(Cl)cc1-c1cocn1)C(=O)O [Compound A-46, (2S)-2-[4-chloro-2-(1,3-oxazol-4-yl)phenoxy]propanoic acid]	11%	–	–
O=C(O)[C@H](CF)Oc1cc(F)c(Cl)cc1-c1ccon1 [Compound A-47, (2R)-2-[4-chloro-5-fluoro-2-(1,2-oxazol-3-yl)phenoxy]-3-fluoropropanoic acid]	19%	7.7 µM	–
CC[C@H](Oc1ccc(Cl)cc1-c1ccno1)C(=O)O [Compound A-49, (2S)-2-[4-chloro-2-(1,2-oxazol-5-yl)phenoxy]butanoic acid]	16%	–	–
O=C(O)[C@H](CC1CC1)Oc1ccc(Cl)cc1-c1ccno1 [Compound A-52, (2S)-2-[4-chloro-2-(1,2-oxazol-5-yl)phenoxy]-3-cyclopropylpropanoic acid]	11%	–	–
C[C@H](Oc1ccc(Cl)cc1-c1csnn1)C(=O)O [Compound A-62, (2S)-2-[4-chloro-2-(1,2,3-thiadiazol-4-yl)phenoxy]propanoic acid]	17%	9.4 µM	–
O=C(O)[C@H](CF)Oc1cc(F)c(Br)cc1-c1ccon1 [Compound A-63, (2R)-2-[4-bromo-5-fluoro-2-(1,2-oxazol-3-yl)phenoxy]-3-fluoropropanoic acid]	23%	10.8 µM	–
O=C(O)[C@H](CF)Oc1ccc(Br)cc1-c1csnn1 [Compound A-66, (2R)-2-[4-bromo-2-(1,2,3-thiadiazol-4-yl)phenoxy]-3-fluoropropanoic acid]	13%	–	–
CC[C@H](Oc1ccc(Br)cc1-c1csnn1)C(=O)O [Compound A-67, (2S)-2-[4-bromo-2-(1,2,3-thiadiazol-4-yl)phenoxy]butanoic acid]	13%	–	–
O=C(O)COc1ccc(Br)cc1-c1ccno1 [Compound A-69, 2-[4-bromo-2-(1,2-oxazol-5-yl)phenoxy]acetic acid]	15%	7.8 µM	–
O=C(O)[C@H](CC1CCC1)Oc1ccc(Br)cc1-c1ccon1 [Compound A-71, (2S)-2-[4-bromo-2-(1,2-oxazol-3-yl)phenoxy]-3-cyclobutylpropanoic acid]	15%	6.5 µM	–
O=C(O)[C@H](CC1CC1)Oc1ccc(Br)cc1-c1csnn1 [Compound A-75, (2S)-2-[4-bromo-2-(1,2,3-thiadiazol-4-yl)phenoxy]-3-cyclopropylpropanoic acid]	10%	–	–
O=C(O)COc1ccc(Cl)cc1-c1ccno1 [Compound A-78, 2-[4-chloro-2-(1,2-oxazol-5-yl)phenoxy]acetic acid]	17%	–	–
O=C(O)COc1ccc(Br)cc1-c1csnn1 [Compound A-79, 2-[4-bromo-2-(1,2,3-thiadiazol-4-yl)phenoxy]acetic acid]	17%	–	–
C[C@H](OCc1ccccc1)C(=O)O [Compound C5, (2S)-2-(benzyloxy)propanoic acid]	–	–	150 μM % change after addition (AUC force) (rat soleus muscles [2]; [3]): 1%; 500 μM % change after addition (AUC force) (rat soleus muscles [2]; [4]): 42%
CC(C(=O)O)S(=O)(=O)c1ccc(F)cc1 (stereo not drawn) [Compound C6, 2-(4-fluorobenzenesulfonyl)propanoic acid]	–	–	150 μM % change after addition (AUC force) (rat soleus muscles [2]; [3]): −8%; 500 μM % change after addition (AUC force) (rat soleus muscles [2]; [4]): 9%
CCC(Oc1ccc(Cl)cc1)C(=O)O (stereo not drawn) [Compound C7, 2-(4-chlorophenoxy)butanoic acid]	–	–	150 μM % change after addition (AUC force) (rat soleus muscles [2]; [3]): 0%; 500 μM % change after addition (AUC force) (rat soleus muscles [2]; [4]): 40%
Cl.NCC(Oc1ccc(F)cc1)C(=O)O (stereo not drawn) [Compound C9, 3-amino-2-(4-fluorophenoxy)propanoic acid hydrochloride]	–	–	150 μM % change after addition (AUC force) (rat soleus muscles [2]; [3]): −13%; 500 μM % change after addition (AUC force) (rat soleus muscles [2]; [4]): 5%
CC(Oc1ccc(Cl)cc1)C(=O)Oc1ccc(Cl)cc1 (stereo not drawn) [Compound C11, 4-chlorophenyl 2-(4-chlorophenoxy)propanoate]	–	–	50 μM % change after addition (AUC force) (rat soleus muscles [2]): 46%; 150 μM % change after addition (AUC force) (rat soleus muscles [2]): 54%
COCC(C)C(Oc1ccc(Br)cc1)C(=O)O (stereo not drawn) [Compound C21, 2-(4-bromophenoxy)-4-methoxy-3-methylbutanoic acid]	–	–	150 μM % change after addition (AUC force) (rat soleus muscles [2]; [3]): 7%; 500 μM % change after addition (AUC force) (rat soleus muscles [2]; [4]): 36%
